Laboratory results as given in patent US20140323500A1, “NADPH OXIDASE 4 INHIBITORS AND USE THEREOF” (GENKYOTEX SA, priority 2011, published 2014).
pKi: −log10 of the molar value.

Legend:
human Nox2 = target: T1, human Nox2 (Homo sapiens, UniProt P04839); assay: ROS production by membranes expressing human Nox2, cell-free Amplex Red assay; type: biochemical; conditions: cell-free membranes, Amplex Red; Cheng-Prusoff; average of at least three experiments in triplicate; read-out: Ki hNox2
T1 construct: host or cells: T-REx-CHO (hNOX2 T-REx-CHO), tetracycline-induced; membrane fraction
T1 sequence (P04839 2-570 limits assumed): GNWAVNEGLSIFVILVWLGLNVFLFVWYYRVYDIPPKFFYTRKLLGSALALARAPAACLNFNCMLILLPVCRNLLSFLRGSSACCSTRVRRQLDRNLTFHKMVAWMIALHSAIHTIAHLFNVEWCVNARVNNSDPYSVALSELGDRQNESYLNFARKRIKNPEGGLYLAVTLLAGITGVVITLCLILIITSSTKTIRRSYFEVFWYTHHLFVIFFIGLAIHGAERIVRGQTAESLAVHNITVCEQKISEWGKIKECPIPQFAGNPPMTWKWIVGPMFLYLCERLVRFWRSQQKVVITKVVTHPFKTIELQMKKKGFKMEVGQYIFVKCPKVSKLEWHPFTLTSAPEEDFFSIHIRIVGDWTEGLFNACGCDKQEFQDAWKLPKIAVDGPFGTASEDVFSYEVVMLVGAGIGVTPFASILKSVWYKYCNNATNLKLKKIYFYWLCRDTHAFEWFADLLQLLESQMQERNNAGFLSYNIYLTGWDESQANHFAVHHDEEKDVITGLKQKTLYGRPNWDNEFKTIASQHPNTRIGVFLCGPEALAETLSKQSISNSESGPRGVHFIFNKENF
T1 sequence (P13498 2-195 partner limits assumed): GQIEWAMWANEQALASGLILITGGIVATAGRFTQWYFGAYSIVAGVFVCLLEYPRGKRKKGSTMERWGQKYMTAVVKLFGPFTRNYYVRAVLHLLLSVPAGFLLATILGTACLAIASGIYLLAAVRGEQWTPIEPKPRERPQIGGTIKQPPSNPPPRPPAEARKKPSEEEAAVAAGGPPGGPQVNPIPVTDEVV
Excerpt: (§1) The Nox4 activity of Nox4 inhibitors according to the invention may be tested for their activity in the inhibition or reduction of formation of reactive oxygen species (ROS) from oxygen in cell free assays. In order to fully characterise Nox4 inhibitors, Nox subunit-specific cell-free, membrane-based systems have been developed and specific recombinant proteins have been added to membranes heterologously over-expressing their specific iso form. Nox enzymes produce superoxide (O2.−) as primary product, however due to the high instability and reactivity of this molecule which dismutates naturally into hydrogen peroxide (H2O2), therefore, read-out techniques involving probes that do measure H2O2 were used (e.g. using Amplex Red as a probe in order to facilitate consistent and accurate measurements). The activity of the compounds is tested in the following cell free assay using the techniques described here below:
Human Nox1 (NM_007052.4), human NOX2 (NM_000397), and human NOX5 (NM_0245052244) cDNAs were cloned into the pcDNA5/TO (Invitrogen). Human p22 (NM_000101.2) was cloned into pcDNA3.1/Zeo (+) (Invitrogen), and human NOXA1 (AY255769.1) and human NOXO1 (AB097667) were cloned into the bi-cistronic pVITRO1-neo-mcs plasmid (Invivogen).
Cells were transfected by using the FuGENE 6 method. Cells stably expressing functional human Nox1 (hNOX1 T-REx™-CHO) were obtained by co-transfecting T-REx™-CHO cells with human Nox1, human p22, human NOXA1 and human NOXO1. Cells stably expressing functional human Nox2 (hNOX2 T-REx™-CHO) were obtained by co-transfecting T-REx™-CHO cells with human nox2, human p22 and human cofactors. Cells stably expressing functional human Nox5 (hNOX5 T-REx™-CHO) were obtained by transfecting T-REx™-CHO cells with human Nox5. Co-transfected cells were selected with the appropriate antibiotics for 10 days. For the selection, hygromycin and G418 were used at 2 mg/ml and zeocin at 0.1 mg/ml. For the establishment of each stably transfected cell line, a pool of antibiotic-resistant cells was generated. Cells were cloned by limiting dilution. Several clones were established and investigated for ROS production upon tetracycline-induced hNox expression using a cellular AR assay. The expression of NOXes was done with tetracycline (1 μg/ml) during 24 h prior to the assay.
(§2) Human Nox1, Nox2, Nox4, and Nox5 expression were induced with Tetracycline (1 μg/ml) during 24 h prior to the membrane preparation Membranes from transfected cells overexpressing Nox1, Nox2, Nox4 or Nox5 were prepared as previously described in Palicz et al., 2001, J. Biol. Chem., 76, 3090-3097. After resuspension in sonication buffer (11% sucrose, 120 mM NaCl, 1 mM EGTA in PBS, pH 7.4 for Nox4- or NOX5-expressing cells) or in relax buffer (10 mM Pipes, 3 mM NaCl, 3.5 mM MgCl2, 0.1M KCl, pH 7.4), cells were broken by sonication and centrifuged (200 g, 10 min). The supernatant was layered onto a 17/40% (w/v) discontinuous sucrose gradient and centrifuged (150,000×g for 60 min). Membrane fractions were collected from the 17/40% interface and were stored at −80° C. Protein concentration was determined with the Bradford reagent.
(§3) Reactive Oxygen Species (ROS) production by membranes expressing either human Nox1, or human Nox2 or human Nox4 or human Nox5 or by xanthine/xanthine oxidase were measured using the Amplex Red (AR) method following a slightly modified version of the manufacturer's instruction manual (Invitrogen). Briefly, membranes or xanthine were incubated in PBS with Amplex Red, Horse Radish Peroxidase (HRP) and appropriated co-factors. ROS production was induced by addition of NADPH to NOX-expressing membrane or by addition of xanthine to xanthine oxidase. Non-specific signal was measured in the absence of membranes or in the absence of xanthine.
Antagonist activity of compounds was measured in the presence of increasing concentrations ranging from 1 nM to 100 μM. […]

human Nox4 = target: T2, human Nox4 (Homo sapiens, UniProt Q9NPH5); assay: ROS production by membranes expressing human Nox4, cell-free Amplex Red assay; type: biochemical; conditions: cell-free membranes, Amplex Red; Cheng-Prusoff; average of at least three experiments in triplicate; read-out: Ki hNox4
T2 construct: expressed in transfected cells; host or cells: T-REx-293 (hNOX4 T-REx-293), tetracycline-induced; membrane fraction
T2 sequence (Q9NPH5 1-578): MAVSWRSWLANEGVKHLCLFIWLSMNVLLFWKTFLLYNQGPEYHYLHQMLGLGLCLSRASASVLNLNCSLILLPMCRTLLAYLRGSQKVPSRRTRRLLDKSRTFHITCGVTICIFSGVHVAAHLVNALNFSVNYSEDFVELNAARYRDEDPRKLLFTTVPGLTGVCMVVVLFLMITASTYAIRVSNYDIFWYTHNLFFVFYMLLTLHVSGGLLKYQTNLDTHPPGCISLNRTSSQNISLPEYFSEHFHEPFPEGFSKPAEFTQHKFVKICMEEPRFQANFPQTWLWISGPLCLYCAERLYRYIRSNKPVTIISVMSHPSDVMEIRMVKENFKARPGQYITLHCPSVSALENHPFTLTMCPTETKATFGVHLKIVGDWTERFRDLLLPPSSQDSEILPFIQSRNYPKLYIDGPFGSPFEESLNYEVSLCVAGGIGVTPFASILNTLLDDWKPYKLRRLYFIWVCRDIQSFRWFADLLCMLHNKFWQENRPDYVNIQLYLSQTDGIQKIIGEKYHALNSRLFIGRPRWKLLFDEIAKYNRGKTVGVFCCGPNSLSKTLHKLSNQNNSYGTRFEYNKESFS
T2 sequence (P13498 2-195 partner limits assumed): T1 sequence (P13498 2-195 partner limits assumed)
Excerpt: as §1
Transfected T-REx™-CHO cells (R718-07) purchased from Invitrogen and T-REx™-293 cell line expressing hNOX4 (hNOX4 T-REx™-293) (Serrander et al., 2007, Biochem. J., 406, 105-114) were cultured in […]. Both media were supplemented with 10% FBS, 2 mM glutamine, penicillin (100 U/ml) and streptomycin (100 μg/ml). Selection pressure was maintained by continuous inclusion of blasticidin (5 μg/ml), and/or G418 (0.25 mg/ml), and/or Hygromycin (0.25 mg/ml) and/or zeocin (0.025 mg/ml).
as §2, §3
Antagonist activity of compounds was measured in the presence of increasing concentrations ranging from 1 nM to 100 μM. After an incubation of 20 min in a plate shaker and incubator (Titramax 1000, VWR) at 37° C. with weak agitation (300 rpm), ROS levels were measured for 10 min in a BMG Fluostar microplate reader with excitation and emission wavelengths of 544 nm and 590 nm respectively.
Data were analysed using Prism (GraphPad Software Inc., San Diego, Calif.). Ki values were calculated using the Cheng-Prusoff equation and represent the average of at least three individual experiments performed in triplicate (Table 1). Nox4 inhibition was compared to that measured for Simvastatin (Enzo Life Sciences, CAS Number 79902-63-9) using the method described in Example 1. Reactive Oxygen Species (ROS) production by membranes expressing human Nox4 was measured using the Amplex Red (AR).

| Compound | pKi (human Nox2) | pKi (human Nox4) |
| --- | --- | --- |
| O=c1c2c(-c3ccc(Cl)cc3)n(Cc3ccncc3)c(=O)cc2[nH]n1-c1ccccc1Cl [(18), 2-(2-chlorophenyl)-4-(4-chlorophenyl)-5-(pyridin-4-ylmethyl)-1H-pyrazolo[4,3-c]pyridine-3,6(2H,5H)-dione] | 6.09 | 7.05 |
| O=c1c2c(-c3ccc(Cl)cc3F)n(Cc3ccncc3)c(=O)cc2[nH]n1-c1ccccc1Cl [(19), 4-(4-chloro-2-fluorophenyl)-2-(2-chlorophenyl)-5-(pyridin-4-ylmethyl)-1H-pyrazolo[4,3-c]pyridine-3,6(2H,5H)-dione] | 6.19 | 7.04 |
| COc1ccc(-c2c3c(=O)n(-c4ccccc4Cl)[nH]c3cc(=O)n2Cc2cccnc2)c(F)c1 [(21), 2-(2-chlorophenyl)-4-(2-fluoro-4-methoxyphenyl)-5-(pyridin-3-ylmethyl)-1H-pyrazolo[4,3-c]pyridine-3,6(2H,5H)-dione] | 6.26 | 7.02 |
| COc1ccc(-c2c3c(=O)n(-c4ccccc4OC)[nH]c3cc(=O)n2Cc2ccn(C)n2)c(F)c1 [(22), 4-(2-fluoro-4-methoxyphenyl)-2-(2-methoxyphenyl)-5-[(1-methyl-1H-pyrazol-3-yl)methyl]-1H-pyrazolo[4,3-c]pyridine-3,6(2H,5H)-dione] | 6.03 | 7.01 |
| O=c1c2c(-c3ccc(Cl)cc3)n(Cc3cccnc3)c(=O)cc2[nH]n1-c1ccccc1Cl [(25), 2-(2-chlorophenyl)-4-(4-chlorophenyl)-5-(pyridin-3-ylmethyl)-1H-pyrazolo[4,3-c]pyridine-3,6(2H,5H)-dione] | 5.66 | 7.00 |
| COc1cc(Cn2c(-c3ccc(Cl)cc3F)c3c(=O)n(-c4ccccc4Cl)[nH]c3cc2=O)ccn1 [(26), 4-(4-chloro-2-fluorophenyl)-2-(2-chlorophenyl)-5-[(2-methoxypyridin-4-yl)methyl]-1H-pyrazolo[4,3-c]pyridine-3,6(2H,5H)-dione] | 6.25 | 6.98 |
| COc1ccc(-c2c3c(=O)n(-c4ccccc4Cl)[nH]c3cc(=O)n2Cc2ccncc2)c(F)c1 [(27), 2-(2-chlorophenyl)-4-(2-fluoro-4-methoxyphenyl)-5-(pyridin-4-ylmethyl)-1H-pyrazolo[4,3-c]pyridine-3,6(2H,5H)-dione] | 6.23 | 6.97 |
| O=c1c2c(-c3ccccc3F)n(Cc3ccncc3)c(=O)cc2[nH]n1-c1ccccc1Cl [(29), 2-(2-chlorophenyl)-4-(2-fluorophenyl)-5-(pyridin-4-ylmethyl)-1H-pyrazolo[4,3-c]pyridine-3,6(2H,5H)-dione] | 6.18 | 6.95 |
| Cc1c2c(=O)n(-c3ccccc3Cl)[nH]c2cc(=O)n1Cc1ccn(C)n1 [(30), 2-(2-chlorophenyl)-4-methyl-5-[(1-methyl-1H-pyrazol-3-yl)methyl]-1H-pyrazolo[4,3-c]pyridine-3,6(2H,5H)-dione] | 5.97 | 6.95 |
| CNc1cccc(-c2c3c(=O)n(-c4ccccc4Cl)[nH]c3cc(=O)n2C)c1 [(32), 2-(2-chlorophenyl)-5-methyl-4-[3-(methylamino)phenyl]-1H-pyrazolo[4,3-c]pyridine-3,6(2H,5H)-dione] | 5.74 | 6.94 |
| O=c1c2c(-c3ccccc3F)n(Cc3ccccn3)c(=O)cc2[nH]n1-c1ccccc1Cl [(34), 2-(2-chlorophenyl)-4-(2-fluorophenyl)-5-(pyridin-2-ylmethyl)-1H-pyrazolo[4,3-c]pyridine-3,6(2H,5H)-dione] | 6.19 | 6.92 |
| O=c1c2c(-c3cc(F)ccc3F)n(Cc3ccncc3)c(=O)cc2[nH]n1-c1ccccc1Cl [(35), 2-(2-chlorophenyl)-4-(2,5-difluorophenyl)-5-(pyridin-4-ylmethyl)-1H-pyrazolo[4,3-c]pyridine-3,6(2H,5H)-dione] | 6.18 | 6.92 |
| O=c1c2c(-c3ccc(Cl)cc3)n(Cc3nccs3)c(=O)cc2[nH]n1-c1ccccc1Cl [(36), 2-(2-chlorophenyl)-4-(4-chlorophenyl)-5-(1,3-thiazol-2-ylmethyl)-1H-pyrazolo[4,3-c]pyridine-3,6(2H,5H)-dione] | 5.94 | 6.90 |
